# Organism: Rattus norvegicus
# Experiment: DrugMatrix - Regimen: Daily Repeat
# Assay type: toxicity, organism-based, Sprague-Dawley
# Design: regimen Daily Repeat, gender Male, age 6-8 weeks
# Settings: in vivo, po, route oral GAVAGE, vehicle 100 % WATER; for ABSOLUTE BASOPHIL / ABSOLUTE EOSINOPHIL / ABSOLUTE LYMPHOCYTE / ABSOLUTE MONOCYTE / ABSOLUTE SEGMENTED NEUTROPHIL / BASOPHIL / EOSINOPHIL / ERYTHROCYTE COUNT / HEMATOCRIT / HEMOGLOBIN / LEUKOCYTE COUNT / LYMPHOCYTE / MEAN CORPUSCULAR HEMOGLOBIN / MEAN CORPUSCULAR HEMOGLOBIN CONCENTRATION / MEAN CORPUSCULAR VOLUME / MONOCYTE / NEUTROPHIL / NUCLEATED RED BLOOD CELLS / PLATELET COUNT: tissue Blood; for ALANINE AMINOTRANSFERASE / ALBUMIN / ALKALINE PHOSPHATASE / ASPARTATE AMINOTRANSFERASE / BLOOD UREA NITROGEN / CARBON DIOXIDE / CHLORIDE / CHOLESTEROL / CREATINE PHOSPHOKINASE / CREATININE / GLUCOSE / LACTATE DEHYDROGENASE / LIPASE / PHOSPHORUS / POTASSIUM / SODIUM / TOTAL BILIRUBIN / TOTAL PROTEIN / URIC ACID: tissue Plasma
# [1] = 0 mg/kg, 72 h, dose level Control, time 3 day
# [2] = 0 mg/kg, 120 h, dose level Control, time 5 day
# [3] = 4.5 mg/kg, 72 h, dose level Low, time 3 day
smiles,measurement,setting,value
NN [HYDRAZINE],ABSOLUTE BASOPHIL,[1],0 CELLS/uL
same,ABSOLUTE EOSINOPHIL,[1],20.17 CELLS/uL
same,ABSOLUTE LYMPHOCYTE,[1],12371.67 CELLS/uL
same,ABSOLUTE MONOCYTE,[1],166 CELLS/uL
same,ABSOLUTE SEGMENTED NEUTROPHIL,[1],1292.17 CELLS/uL
same,BASOPHIL,[1],0%
same,EOSINOPHIL,[1],0.17%
same,ERYTHROCYTE COUNT,[1],5.46 x10E6/uL
same,HEMATOCRIT,[1],34.38%
same,HEMOGLOBIN,[1],13.32 G/DL
same,LEUKOCYTE COUNT,[1],13.85 x10E3/uL
same,LYMPHOCYTE,[1],88.5%
same,MEAN CORPUSCULAR HEMOGLOBIN,[1],24.42 pg
same,MEAN CORPUSCULAR HEMOGLOBIN CONCENTRATION,[1],38.7 G/DL
same,MEAN CORPUSCULAR VOLUME,[1],63.07 fL
same,MONOCYTE,[1],1.17%
same,NEUTROPHIL,[1],10.17%
same,NUCLEATED RED BLOOD CELLS,[1],0.17 /100WBC
same,PLATELET COUNT,[1],1193.5 x10E3/uL
same,ALANINE AMINOTRANSFERASE,[1],54.5 u/L
same,ALBUMIN,[1],4.02 G/DL
same,ALKALINE PHOSPHATASE,[1],346.5 u/L
same,ASPARTATE AMINOTRANSFERASE,[1],103.17 u/L
same,BLOOD UREA NITROGEN,[1],16.5 mg/dL
same,CARBON DIOXIDE,[1],29.83 mmol/L
same,CHLORIDE,[1],99.5 MEQ/L
same,CHOLESTEROL,[1],72.5 mg/dL
same,CREATINE PHOSPHOKINASE,[1],532.5 u/L
same,CREATININE,[1],0.18 mg/dL
same,GLUCOSE,[1],168.5 mg/dL
same,LACTATE DEHYDROGENASE,[1],536.5 u/L
same,LIPASE,[1],11.17 u/L
same,PHOSPHORUS,[1],11.48 mg/dL
same,POTASSIUM,[1],5.95 MEQ/L
same,SODIUM,[1],140.5 MEQ/L
same,TOTAL BILIRUBIN,[1],0.18 mg/dL
same,TOTAL PROTEIN,[1],5.77 G/DL
same,URIC ACID,[1],1.42 mg/dL
same,ABSOLUTE BASOPHIL,[2],0 CELLS/uL
same,ABSOLUTE EOSINOPHIL,[2],22.83 CELLS/uL
same,ABSOLUTE LYMPHOCYTE,[2],12202.83 CELLS/uL
same,ABSOLUTE MONOCYTE,[2],158 CELLS/uL
same,ABSOLUTE SEGMENTED NEUTROPHIL,[2],1283 CELLS/uL
same,BASOPHIL,[2],0%
same,EOSINOPHIL,[2],0.17%
same,ERYTHROCYTE COUNT,[2],5.88 x10E6/uL
same,HEMATOCRIT,[2],36.62%
same,HEMOGLOBIN,[2],14.07 G/DL
same,LEUKOCYTE COUNT,[2],13.67 x10E3/uL
same,LYMPHOCYTE,[2],89.5%
same,MEAN CORPUSCULAR HEMOGLOBIN,[2],23.95 pg
same,MEAN CORPUSCULAR HEMOGLOBIN CONCENTRATION,[2],38.43 G/DL
same,MEAN CORPUSCULAR VOLUME,[2],62.28 fL
same,MONOCYTE,[2],1.17%
same,NEUTROPHIL,[2],9.17%
same,NUCLEATED RED BLOOD CELLS,[2],0.17 /100WBC
same,PLATELET COUNT,[2],1198 x10E3/uL
same,ALANINE AMINOTRANSFERASE,[2],51 u/L
same,ALBUMIN,[2],4.3 G/DL
same,ALKALINE PHOSPHATASE,[2],343 u/L
same,ASPARTATE AMINOTRANSFERASE,[2],89.83 u/L
same,BLOOD UREA NITROGEN,[2],17.67 mg/dL
same,CARBON DIOXIDE,[2],27.17 mmol/L
same,CHLORIDE,[2],98.33 MEQ/L
same,CHOLESTEROL,[2],82.5 mg/dL
same,CREATINE PHOSPHOKINASE,[2],533.33 u/L
same,CREATININE,[2],0.18 mg/dL
same,GLUCOSE,[2],152.67 mg/dL
same,LACTATE DEHYDROGENASE,[2],220.33 u/L
same,LIPASE,[2],11.5 u/L
same,PHOSPHORUS,[2],11.25 mg/dL
same,POTASSIUM,[2],6.29 MEQ/L
same,SODIUM,[2],140.53 MEQ/L
same,TOTAL BILIRUBIN,[2],0.22 mg/dL
same,TOTAL PROTEIN,[2],6.12 G/DL
same,URIC ACID,[2],1.42 mg/dL
same,ABSOLUTE BASOPHIL,[3],0 CELLS/uL
same,ABSOLUTE EOSINOPHIL,[3],52 CELLS/uL
same,ABSOLUTE LYMPHOCYTE,[3],11298 CELLS/uL
same,ABSOLUTE MONOCYTE,[3],113 CELLS/uL
same,ABSOLUTE SEGMENTED NEUTROPHIL,[3],1470.33 CELLS/uL
same,BASOPHIL,[3],0%
same,EOSINOPHIL,[3],0.33%
same,ERYTHROCYTE COUNT,[3],5.57 x10E6/uL
same,HEMATOCRIT,[3],35.73%
same,HEMOGLOBIN,[3],13.97 G/DL
same,LEUKOCYTE COUNT,[3],12.93 x10E3/uL
same,LYMPHOCYTE,[3],87.33%
same,MEAN CORPUSCULAR HEMOGLOBIN,[3],25.1 pg
same,MEAN CORPUSCULAR HEMOGLOBIN CONCENTRATION,[3],39.1 G/DL
same,MEAN CORPUSCULAR VOLUME,[3],64.2 fL
same,MONOCYTE,[3],1%
same,NEUTROPHIL,[3],11.33%
same,NUCLEATED RED BLOOD CELLS,[3],0.33 /100WBC
same,PLATELET COUNT,[3],1229.67 x10E3/uL
same,ALANINE AMINOTRANSFERASE,[3],44.67 u/L
same,ALBUMIN,[3],4.07 G/DL
same,ALKALINE PHOSPHATASE,[3],421.33 u/L
same,ASPARTATE AMINOTRANSFERASE,[3],89.67 u/L
same,BLOOD UREA NITROGEN,[3],13.33 mg/dL
same,CARBON DIOXIDE,[3],30.67 mmol/L
same,CHLORIDE,[3],99 MEQ/L
same,CHOLESTEROL,[3],73.67 mg/dL
same,CREATINE PHOSPHOKINASE,[3],298.33 u/L
same,CREATININE,[3],0.17 mg/dL
same,GLUCOSE,[3],155 mg/dL
same,LACTATE DEHYDROGENASE,[3],178.33 u/L
same,LIPASE,[3],10.67 u/L
same,PHOSPHORUS,[3],11.43 mg/dL
same,POTASSIUM,[3],6.44 MEQ/L
same,SODIUM,[3],142.33 MEQ/L
same,TOTAL BILIRUBIN,[3],0.2 mg/dL
same,TOTAL PROTEIN,[3],6.07 G/DL
same,URIC ACID,[3],1.73 mg/dL

# Source: ChEMBL document CHEMBL3885881, “DrugMatrix”
